# Results: patent publication US9957271B2, “Substituted bicyclic aza-heterocycles and analogues as sirtuin modulators” (GlaxoSmithKline, LLC, priority 2012, dated 2018)
# Where two headings read alike, the source gives them in different places.
# Molecular target: T1, SIRT1 (Homo sapiens, UniProt Q96EB6)
# T1 sequence (Q96EB6 1-747): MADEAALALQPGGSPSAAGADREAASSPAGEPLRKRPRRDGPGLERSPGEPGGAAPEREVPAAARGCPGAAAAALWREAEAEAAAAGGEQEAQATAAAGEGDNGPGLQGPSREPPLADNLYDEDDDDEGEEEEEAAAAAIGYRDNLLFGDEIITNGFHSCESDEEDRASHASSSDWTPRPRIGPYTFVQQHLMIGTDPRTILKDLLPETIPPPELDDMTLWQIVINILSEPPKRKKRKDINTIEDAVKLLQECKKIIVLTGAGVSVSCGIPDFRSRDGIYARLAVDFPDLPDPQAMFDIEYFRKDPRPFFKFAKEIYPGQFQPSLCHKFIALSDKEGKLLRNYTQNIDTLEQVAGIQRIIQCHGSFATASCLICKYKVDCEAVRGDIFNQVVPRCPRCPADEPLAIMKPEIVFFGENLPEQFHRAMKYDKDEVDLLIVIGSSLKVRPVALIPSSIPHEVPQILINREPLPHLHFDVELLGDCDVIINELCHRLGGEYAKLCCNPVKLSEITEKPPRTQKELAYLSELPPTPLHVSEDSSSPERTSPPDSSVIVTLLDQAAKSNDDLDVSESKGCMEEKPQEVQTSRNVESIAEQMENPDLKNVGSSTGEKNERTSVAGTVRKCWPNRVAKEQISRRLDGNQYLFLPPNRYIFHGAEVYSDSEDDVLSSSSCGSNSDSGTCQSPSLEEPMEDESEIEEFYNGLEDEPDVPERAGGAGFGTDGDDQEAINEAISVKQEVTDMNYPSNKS
# Experiment: TAMRA based mass spectrometry assay of SIRT1 activity
# Assay type: biochemical
# Settings: for Emax: read-out: TAMRA % Fold Act
# In short: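 Deacetylation of a biotinylated, TAMRA-tagged p53-based peptide (0.5 μM) by 10 nM His-tagged SIRT1 with 120 μM βNAD+, 25 °C for 25 min, pH 8 Tris-acetate buffer, across a compound concentration range. Quenched by formic acid and read by mass spec as product peptide or OAADPR; activity relative to DMSO reactions, nicotinamide defining maximal inhibition.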
# [1] = TAMRA peptide substrate, concentration giving 150% activation of SIRT1
# [2] = TAMRA peptide substrate, percent maximum fold activation
# [3] = TAMRA assay, concentration giving 150% activation of SIRT1
# [4] = TAMRA assay, percent maximum fold activation
# [5] = concentration of test compound giving 150% activation of SIRT1, TAMRA peptide substrate
# [6] = percent maximum fold activation of SIRT1, TAMRA peptide substrate
TAMRA EC1.5 (μM) [3],Emax [4] [%],SMILES,further results
–,–,COc1nccc(NC(=O)c2c(C)nc3c(C)cc(-c4ccccc4C(F)(F)F)nn23)n1 [Compound 543],TAMRA EC1.5 [1]: A (EC1.5<1 μM); Emax [2]: ≥ 350%
B (EC1.5 1-25 μM),< 350,O=C(Nc1cnc2ccc(-c3ccccc3Cl)nn12)c1cnccn1 [Compound 288],–
–,–,"Cc1nc2ccc(-c3ccccc3C(F)(F)F)nn2c1C(=O)Nc1cccnn1 [Compound 462, 2-methyl-N-(pyridazin-3-yl)-6-(2-(trifluoromethyl)phenyl)imidazo[1,2-b]pyridazine-3-carboxamide]",TAMRA EC1.5 [1]: A (EC1.5<1 μM); Emax [2]: ≥ 350%
–,–,O=C(Nc1cnccn1)c1cnn2ccc(-c3ccccc3OC(F)(F)F)nc12 [Compound 532],TAMRA EC1.5 [1]: A (EC1.5<1 μM); Emax [2]: ≥ 350%
B (EC1.5 1-25 μM),< 350,Cc1cnc(C(=O)Nc2cnc3ccc(-c4ccccc4F)nn23)s1 [Compound 304],–
–,–,O=C(Nc1cccnc1)c1cnc2ccc(-c3ccccc3F)nn12 [Compound 138],TAMRA EC1.5 (μM) [5]: B (EC1.5 1-25 μM); Emax [6]: < 350%
C (EC1.5>25 μM),< 350,O=C(Nc1cccc(OCC(F)(F)F)n1)c1cnc2ccc(-c3ccccc3F)nn12 [Compound 258],–
–,–,Cc1cc2ncc(NC(=O)c3nccs3)n2nc1-c1ccccc1C(F)(F)F [Compound 446],TAMRA EC1.5 [1]: A (EC1.5<1 μM); Emax [2]: ≥ 350%
–,–,Cc1nn2ccc(-c3ccccc3C(F)(F)F)nc2c1C(=O)Nc1ccncc1 [Compound 560],TAMRA EC1.5 [1]: A (EC1.5<1 μM); Emax [2]: ≥ 350%
–,–,Cc1nn2ccc(-c3ccccc3C(F)(F)F)nc2c1NC(=O)c1cccc(O)n1 [Compound 575],TAMRA EC1.5 [1]: C (EC1.5>25 μM); Emax [2]: < 350%
A (EC1.5<1 μM),≥ 350,"Cc1cnc(C(=O)Nc2cnc3ccc(-c4ccccc4C(F)(F)F)nn23)cn1 [Compound 219, 5-methyl-N-(6-(2-(trifluoromethyl)phenyl)imidazo[1,2-b]pyridazin-3-yl)pyrazine-2-carboxamide]",–
B (EC1.5 1-25 μM),≥ 350,O=C(Nc1cnn2ccc(-c3ccccc3OC(F)(F)F)nc12)c1nccs1 [Compound 781],–
–,–,Cc1cnc(C(=O)Nc2cnn3ccc(-c4ccccc4C(F)(F)F)nc23)s1 [Compound 525],TAMRA EC1.5 [1]: A (EC1.5<1 μM); Emax [2]: ≥ 350%
B (EC1.5 1-25 μM),≥ 350,Cc1ccc(NC(=O)c2cnn3ccc(-c4ccccc4C(F)(F)F)nc23)c(C)n1 [Compound 641],–
A (EC1.5<1 μM),≥ 350,Cc1cc(C)nc(NC(=O)c2cnc3ccc(-c4ccccc4F)nn23)c1 [Compound 243],–
–,–,O=C(Nc1cccc(N2CCOCC2)n1)c1cnc2ccc(-c3c(F)cccc3F)nn12 [Compound 168],TAMRA EC1.5 (μM) [5]: A (EC1.5<1 μM); Emax [6]: ≥ 350%
C (EC1.5>25 μM),< 350,O=C(Nc1cnn2ccc(-c3ccccc3C(F)(F)F)nc12)c1cccnc1 [Compound 250],–
A (EC1.5<1 μM),≥ 350,Cc1cc(C)nc(NC(=O)c2c(C)nn3ccc(-c4ccccc4C(F)(F)F)nc23)c1 [Compound 685],–
C (EC1.5>25 μM),< 350,O=C(Nc1ncccc1N1CCOCC1)c1cnc2ccc(-c3ccccc3C(F)(F)F)nn12 [Compound 211],–
–,–,O=C(Nc1cccc(OC[C@H](O)CO)n1)c1cnc2ccc(-c3ccccc3C(F)(F)F)nn12 [Compound 553],TAMRA EC1.5 [1]: A (EC1.5<1 μM); Emax [2]: ≥ 350%
A (EC1.5<1 μM),≥ 350,Cc1nc2ccc(-c3ccccc3C(F)(F)F)nn2c1C(=O)Nc1cnncn1 [Compound 667],–
A (EC1.5<1 μM),≥ 350,Cc1cc(-c2ccccc2C(F)(F)F)nn2c(C(=O)Nc3cc(N4CCCC4)ncn3)cnc12 [Compound 646],–
–,–,Cc1ncccc1-c1ccc2ncc(C(=O)Nc3cccc(N4CCOCC4)n3)n2n1 [Compound 58],TAMRA EC1.5 (μM) [5]: B (EC1.5 1-25 μM); Emax [6]: < 350%
–,–,O=C(Nc1cnc2ccc(-c3ccccc3C(F)(F)F)nn12)c1ncccn1 [Compound 121],TAMRA EC1.5 (μM) [5]: A (EC1.5<1 μM); Emax [6]: ≥ 350%
A (EC1.5<1 μM),≥ 350,"O=C(Nc1cccc(OCC(O)CO)n1)c1cnc2ccc(-c3ccccc3C(F)(F)F)nn12 (centres unmarked) [Compound 212, N-(6-(2,3-dihydroxypropoxy)pyridin-2-yl)-6-(2-(trifluoromethyl)phenyl)imidazo[1,2-b]pyridazine-3-carboxamide]",–

TAMRA EC1.5 (μM) [3],Emax [4] [%],SMILES,further results
B (EC1.5 1-25 μM),< 350,O=C(Nc1cnc2ccc(-c3ccccc3F)nn12)c1cscn1 [Compound 298],–
–,–,O=C(Nc1cnc2ccc(-c3ccccc3C(F)(F)F)nn12)c1ccnc(N2CCCC2)c1 [Compound 124],TAMRA EC1.5 (μM) [5]: A (EC1.5<1 μM); Emax [6]: ≥ 350%
–,–,Cc1cnc(C(=O)Nc2cnc3ccc(-c4ccccc4C(F)(F)F)nn23)s1 [Compound 123],TAMRA EC1.5 (μM) [5]: A (EC1.5<1 μM); Emax [6]: ≥ 350%
B (EC1.5 1-25 μM),≥ 350,O=C(Nc1cnn2ccc(-c3ccccc3C(F)(F)F)nc12)c1ncccn1 [Compound 252],–
A (EC1.5<1 μM),≥ 350,Cc1nc2ccc(-c3ccccc3C(F)(F)F)nn2c1C(=O)Nc1ccc(Cl)cn1 [Compound 673],–
–,–,Cc1cc(NC(=O)c2cnc3c(C)cc(-c4ccccc4C(F)(F)F)nn23)ccn1 [Compound 540],TAMRA EC1.5 [1]: A (EC1.5<1 μM); Emax [2]: ≥ 350%
–,–,O=C(Nc1ccncc1)c1cnc2ccc(-c3c(F)cccc3F)nn12 [Compound 166],TAMRA EC1.5 (μM) [5]: C (EC1.5>25 μM); Emax [6]: < 350%
B (EC1.5 1-25 μM),< 350,N#Cc1ccccc1-c1ccc2ncc(NC(=O)c3ccncn3)n2n1 [Compound 330],–
A (EC1.5<1 μM),≥ 350,Cc1cccnc1C(=O)Nc1cnc2ccc(-c3ccccc3C(F)(F)F)nn12 [Compound 232],–
A (EC1.5<1 μM),≥ 350,Cc1cc(-c2ccccc2C(F)(F)F)nn2c(C(=O)Nc3ccnc(N4CC5(CCS5(=O)=O)C4)n3)cnc12 [Compound 691],–
–,–,Cc1nc2c(C)cc(-c3ccccc3C(F)(F)F)nn2c1C(=O)Nc1cccc(N2CC3(COC3)C2)n1 [Compound 562],TAMRA EC1.5 [1]: A (EC1.5<1 μM); Emax [2]: ≥ 350%
A (EC1.5<1 μM),≥ 350,Cc1cc(C)nc(NC(=O)c2c(C)nn3ccc(-c4ccccc4C(F)(F)F)nc23)n1 [Compound 777],–
–,–,Cc1cccc(NC(=O)c2c(C)nc3c(C)cc(-c4ccccc4C(F)(F)F)nn23)n1 [Compound 458],TAMRA EC1.5 [1]: A (EC1.5<1 μM); Emax [2]: ≥ 350%
–,–,O=C(Nc1nc(CN2CCOCC2)cs1)c1cnc2ccc(-c3cccc(F)c3F)nn12 [Compound 48],TAMRA EC1.5 (μM) [5]: B (EC1.5 1-25 μM); Emax [6]: ≥ 350%
A (EC1.5<1 μM),≥ 350,O=C(Nc1cc(O)ncn1)c1cnn2ccc(-c3ccccc3OC(F)(F)F)nc12 [Compound 711],–
–,–,O=C(Nc1ncco1)c1cnc2ccc(-c3ccccc3C(F)(F)F)nn12 [Compound 114],TAMRA EC1.5 (μM) [5]: B (EC1.5 1-25 μM); Emax [6]: < 350%
–,–,Cc1nc2c(C)cc(-c3ccccc3OC(F)(F)F)nn2c1C(=O)Nc1cccnn1 [Compound 479],TAMRA EC1.5 [1]: A (EC1.5<1 μM); Emax [2]: ≥ 350%
–,–,Cc1nc2ccc(-c3ccccc3C(F)(F)F)nn2c1C(=O)Nc1ccc(F)cn1 [Compound 465],TAMRA EC1.5 [1]: A (EC1.5<1 μM); Emax [2]: ≥ 350%
–,–,O=C(Nc1nc(CN2CCOCC2)cs1)c1cnc2ccc(-c3cccc(C(F)(F)F)c3)nn12 [Compound 6],TAMRA EC1.5 (μM) [5]: A (EC1.5<1 μM); Emax [6]: ≥ 350%
A (EC1.5<1 μM),≥ 350,Cc1cc(-c2ccccc2C(F)(F)F)nn2c(C(=O)Nc3cnccn3)cnc12 [Compound 208],–
A (EC1.5<1 μM),≥ 350,O=C(Nc1cnn2ccc(-c3ccccc3OC(F)(F)F)nc12)c1nc2c(s1)CCCC2 [Compound 780],–
A (EC1.5<1 μM),< 350,Cc1nc2ccc(-c3ccccc3OC[C@H](O)CO)nn2c1C(=O)Nc1ccncn1 [Compound 774],–
–,–,Cc1cc(-c2ccccc2C(F)(F)F)nn2c(C(=O)Nc3ccnc(OC4CCOCC4)n3)cnc12 [Compound 587],TAMRA EC1.5 [1]: A (EC1.5<1 μM); Emax [2]: ≥ 350%
A (EC1.5<1 μM),≥ 350,Cc1nn2ccc(-c3ccccc3C(F)(F)F)nc2c1C(=O)Nc1ccncc1F [Compound 789],–
